Data on 7 compounds can be found in patent US20160031925A1, “AZITHROMYCIN ANTIMICROBIAL DERIVATIVES WITH NON-ANTIBIOTIC PHARMACEUTICAL EFFECT” (priority 2013, published 2016).

Where two headings read alike, the source gives them in different places.

Holding throughout (assay type): cell-based
Test [1] concerns Pseudomonas aeruginosa ATCC 9027. Nature of the test: Antimicrobial disk susceptibility test (CLSI M2-A9), P. aeruginosa. The protocol:
(§1) Test for the antimicrobial activity of the novel compounds may be performed according to the standards of Clinical and Laboratory Standards Institute, Performance Standards for Antimicrobial Disk Susceptibility Tests; approved Standard; M2-A), vol. 26 NO. 1 9th ed.
(§2) A test for the antimicrobial activity of the novel compounds were performed according to the standards of Clinical and Laboratory Standards Institute, Performance Standards for Antimicrobial Disk Susceptibility Tests; approved Standard; M2-A), vol. 26 NO. 1 9th ed. The samples were dissolved in 10 ml of sterile Milli-Q water by magnetic stirring overnight at 20° C.
(§3) Two doses of the samples were tested in duplicate, a) and b). The size of the inhibition zones were measured in mm after incubation.

Test [2] deals with Klebsiella pneumonia ATCC 35657. Briefly: Antimicrobial disk susceptibility test (CLSI M2-A9), K. pneumonia. The method, then: as §1, §2, §3
For test [3], the system named is Escherichia coli ATCC 8739. Nature of the test: Antimicrobial disk susceptibility test (CLSI M2-A9), E. coli. The method, then:
as §1, §2, §3

The subject of test [4] is Staphylococcus aureus ATTC 6538. Nature of the test: Antimicrobial disk susceptibility test (CLSI M2-A9), S. aureus. The protocol:
as §1, §2, §3

The mark [5] stands for this setting: Pseudomonas aeruginosa, ATCC9027; 5 μg/disk, duplicate a); read-out: size of the inhibition zone, P. aeruginosa a).
[6] abbreviates: Pseudomonas aeruginosa, ATCC9027; 5 μg/disk, duplicate b); read-out: size of the inhibition zone, P. aeruginosa b).
Setting [7] is: Pseudomonas aeruginosa, ATCC9027; 10 μg/disk, duplicate a); read-out: size of the inhibition zone, P. aeruginosa a).
Where [8] appears, read: Pseudomonas aeruginosa, ATCC9027; 10 μg/disk, duplicate b); read-out: size of the inhibition zone, P. aeruginosa b).
Where [9] appears, read: Klebsiella pneumoniae, ATCC35657; 5 μg/disk, duplicate a); read-out: size of the inhibition zone, K. pneumonia a).
Where [10] appears, read: Klebsiella pneumoniae, ATCC35657; 5 μg/disk, duplicate b); read-out: size of the inhibition zone, K. pneumonia b).
Where [11] appears, read: Klebsiella pneumoniae, ATCC35657; 10 μg/disk, duplicate a); read-out: size of the inhibition zone, K. pneumonia a).
The mark [12] stands for this setting: Klebsiella pneumoniae, ATCC35657; 10 μg/disk, duplicate b); read-out: size of the inhibition zone, K. pneumonia b).
[13] abbreviates: Escherichia coli, ATCC8739; 5 μg/disk, duplicate a); read-out: size of the inhibition zone, E. coli a).
The mark [14] stands for this setting: Escherichia coli, ATCC8739; 5 μg/disk, duplicate b); read-out: size of the inhibition zone, E. coli b).
The mark [15] stands for this setting: Escherichia coli, ATCC8739; 10 μg/disk, duplicate a); read-out: size of the inhibition zone, E. coli a).
The mark [16] stands for this setting: Escherichia coli, ATCC8739; 10 μg/disk, duplicate b); read-out: size of the inhibition zone, E. coli b).
Where [17] appears, read: Staphylococcus aureus, ATTC6538; 5 μg/disk, duplicate a); read-out: size of the inhibition zone, S. aureus a).
The mark [18] stands for this setting: Staphylococcus aureus, ATTC6538; 5 μg/disk, duplicate b); read-out: size of the inhibition zone, S. aureus b).
Where [19] appears, read: Staphylococcus aureus, ATTC6538; 10 μg/disk, duplicate a); read-out: size of the inhibition zone, S. aureus a).
The mark [20] stands for this setting: Staphylococcus aureus, ATTC6538; 10 μg/disk, duplicate b); read-out: size of the inhibition zone, S. aureus b).

Consider `CC[C@H]1OC(=O)[C@H](C)C(O[C@H]2C[C@@](C)(OC)[C@@H](O)[C@H](C)O2)[C@H](C)[C@@H](OC2O[C@H](C)C[C@H](N(C)C)[C@H]2C)[C@](C)(O)C[C@@H](C)CN(C)[C@H](C)[C@@H](O)[C@]1(C)O` (stereo partly shown) [PP001], for which the zone of inhibition at 5 µg/disc in test [1] (setting [5]), in test [1] (setting [6]), in test [2] (setting [9]), in test [2] (setting [10]), in test [3] (setting [13]) and in test [3] (setting [14]) was less than 1 mm in each case. For the same compound, the zone of inhibition at 5 µg/disc in test [4] (setting [17]) and in test [4] (setting [18]) was less than 1 mm throughout. Besides, the zone of inhibition at 10 µg/disc in test [1] (setting [7]), in test [1] (setting [8]), in test [2] (setting [11]), in test [2] (setting [12]), in test [3] (setting [15]) and in test [3] (setting [16]) was less than 1 mm each time. Also, the zone of inhibition at 10 µg/disc in test [4] (setting [19]) and in test [4] (setting [20]) was less than 1 mm throughout.

As for `CC[C@H]1OC(=O)[C@H](C)C(O[C@H]2C[C@@](C)(OC)[C@@H](C)[C@H](C)O2)[C@H](C)[C@@H](OC2O[C@H](C)C[C@H](N(C)C)[C@H]2O)[C@](C)(O)C[C@@H](C)CN(C)[C@H](C)[C@@H](O)[C@]1(C)O` (stereo partly shown) [PP002], the zone of inhibition at 5 µg/disc in test [1] (setting [5]), in test [1] (setting [6]), in test [2] (setting [9]), in test [2] (setting [10]), in test [3] (setting [13]) and in test [3] (setting [14]) was less than 1 mm throughout. Further, the zone of inhibition at 5 µg/disc in test [4] (setting [17]) and in test [4] (setting [18]) was less than 1 mm in each case. Also, the zone of inhibition at 10 µg/disc in test [1] (setting [7]), in test [1] (setting [8]), in test [2] (setting [11]), in test [2] (setting [12]), in test [3] (setting [15]) and in test [3] (setting [16]) was less than 1 mm each time. The zone of inhibition at 10 µg/disc in test [4] (setting [19]) and in test [4] (setting [20]) was less than 1 mm in each case.

For the compound `CCC1OC(=O)C(C)C(OC2CC(C)(OC)C(C)C(C)O2)C(C)C(OC2OC(C)CC(N(C)C)C2C)C(C)(O)CC(C)CN(C)C(C)C(O)C1(C)O` (stereo not shown) [PP003], the “size of the inhibition zone, P. aeruginosa a)” value is on record as less than 1 mm in test [1] (5 μg/disk, duplicate a)) and less than 1 mm in test [1] (10 μg/disk, duplicate a)). Further, the “size of the inhibition zone, P. aeruginosa b)” value in test [1] (5 μg/disk, duplicate b)) was less than 1 mm; in test [1] (10 μg/disk, duplicate b)) it was less than 1 mm. In addition, the “size of the inhibition zone, K. pneumonia a)” value in test [2] (5 μg/disk, duplicate a)) was less than 1 mm; in test [2] (10 μg/disk, duplicate a)) it was less than 1 mm. Moreover, the “size of the inhibition zone, K. pneumonia b)” value is given as less than 1 mm in test [2] (5 μg/disk, duplicate b)) and less than 1 mm in test [2] (10 μg/disk, duplicate b)). In addition, the “size of the inhibition zone, E. coli a)” value in test [3] (5 μg/disk, duplicate a)) is less than 1 mm; in test [3] (10 μg/disk, duplicate a)), less than 1 mm. Moreover, the “size of the inhibition zone, E. coli b)” value in test [3] (5 μg/disk, duplicate b)) is given as less than 1 mm; in test [3] (10 μg/disk, duplicate b)), less than 1 mm. Besides, the “size of the inhibition zone, S. aureus a)” value in test [4] (5 μg/disk, duplicate a)) is less than 1 mm; in test [4] (10 μg/disk, duplicate a)) it was less than 1 mm. In addition, the “size of the inhibition zone, S. aureus b)” value was less than 1 mm in test [4] (5 μg/disk, duplicate b)) and less than 1 mm in test [4] (10 μg/disk, duplicate b)).

In the case of `CC[C@H]1OC(=O)[C@H](C)C(O[C@H]2C[C@@](C)(OC)C[C@H](C)O2)[C@H](C)[C@@H](OC2O[C@H](C)C[C@H](N(C)C)[C@H]2O)[C@](C)(O)C[C@@H](C)CN(C)[C@H](C)[C@@H](O)[C@]1(C)O` (stereo partly shown) [PP004], the zone of inhibition at 5 µg/disc in test [1] (setting [5]), in test [1] (setting [6]), in test [2] (setting [9]), in test [2] (setting [10]), in test [3] (setting [13]) and in test [3] (setting [14]) was less than 1 mm in each case. In addition, the zone of inhibition at 5 µg/disc in test [4] (setting [17]) and in test [4] (setting [18]) was less than 1 mm in each case. Moreover, the zone of inhibition at 10 µg/disc in test [1] (setting [7]), in test [1] (setting [8]), in test [2] (setting [11]), in test [2] (setting [12]), in test [3] (setting [15]) and in test [3] (setting [16]) was less than 1 mm throughout. For the same compound, the zone of inhibition at 10 µg/disc in test [4] (setting [19]) and in test [4] (setting [20]) was less than 1 mm each time.

On to `CC[C@H]1OC(=O)[C@H](C)C(O[C@H]2C[C@@](C)(OC)[C@@H](O)[C@H](C)O2)[C@H](C)[C@@H](OC2C[C@@H](N(C)C)C[C@@H](C)O2)[C@](C)(O)C[C@@H](C)CN(C)[C@H](C)[C@@H](O)[C@]1(C)O` (stereo partly shown) [PP005], for which the zone of inhibition at 5 µg/disc in test [1] (setting [5]), in test [1] (setting [6]), in test [2] (setting [9]), in test [2] (setting [10]), in test [3] (setting [13]) and in test [3] (setting [14]) was less than 1 mm throughout. For the same compound, the zone of inhibition at 5 µg/disc in test [4] (setting [17]) and in test [4] (setting [18]) was less than 1 mm throughout. Moreover, the zone of inhibition at 10 µg/disc in test [1] (setting [7]), in test [1] (setting [8]), in test [2] (setting [11]), in test [2] (setting [12]), in test [3] (setting [15]) and in test [3] (setting [16]) was less than 1 mm throughout. For the same compound, the zone of inhibition at 10 µg/disc in test [4] (setting [19]) and in test [4] (setting [20]) was less than 1 mm throughout.

Regarding `CCC1OC(=O)C(C)C(OC2CC(C)(OC)CC(C)O2)C(C)C(OC2CC(N(C)C)CC(C)O2)C(C)(O)CC(C)CN(C)C(C)C(O)C1(C)O` (stereo not shown) [PP006], the “size of the inhibition zone, P. aeruginosa a)” value in test [1] (5 μg/disk, duplicate a)) was less than 1 mm; in test [1] (10 μg/disk, duplicate a)) it was less than 1 mm. Besides, the “size of the inhibition zone, P. aeruginosa b)” value is listed as less than 1 mm in test [1] (5 μg/disk, duplicate b)) and less than 1 mm in test [1] (10 μg/disk, duplicate b)). Further, the “size of the inhibition zone, K. pneumonia a)” value in test [2] (5 μg/disk, duplicate a)) is on record as less than 1 mm; in test [2] (10 μg/disk, duplicate a)), less than 1 mm. Further, the “size of the inhibition zone, K. pneumonia b)” value in test [2] (5 μg/disk, duplicate b)) was less than 1 mm; in test [2] (10 μg/disk, duplicate b)) it was less than 1 mm. For the same compound, the “size of the inhibition zone, E. coli a)” value is less than 1 mm in test [3] (5 μg/disk, duplicate a)) and less than 1 mm in test [3] (10 μg/disk, duplicate a)). Also, the “size of the inhibition zone, E. coli b)” value was less than 1 mm in test [3] (5 μg/disk, duplicate b)) and less than 1 mm in test [3] (10 μg/disk, duplicate b)). Moreover, the “size of the inhibition zone, S. aureus a)” value is recorded as less than 1 mm in test [4] (5 μg/disk, duplicate a)) and less than 1 mm in test [4] (10 μg/disk, duplicate a)). The “size of the inhibition zone, S. aureus b)” value in test [4] (5 μg/disk, duplicate b)) was less than 1 mm; in test [4] (10 μg/disk, duplicate b)), less than 1 mm.

`CCC1OC(=O)C(C)C(OC2CC(C)(OC)CC(C)O2)C(C)C(OC2OC(C)CC(N(C)C)C2C)C(C)(O)CC(C)CN(C)C(C)C(O)C1(C)O` (stereo not shown) [PP007]: the “size of the inhibition zone, P. aeruginosa a)” value in test [1] (5 μg/disk, duplicate a)) is less than 1 mm; in test [1] (10 μg/disk, duplicate a)), less than 1 mm. The “size of the inhibition zone, P. aeruginosa b)” value is less than 1 mm in test [1] (5 μg/disk, duplicate b)) and less than 1 mm in test [1] (10 μg/disk, duplicate b)). Further, the “size of the inhibition zone, K. pneumonia a)” value in test [2] (5 μg/disk, duplicate a)) is less than 1 mm; in test [2] (10 μg/disk, duplicate a)), less than 1 mm. The “size of the inhibition zone, K. pneumonia b)” value in test [2] (5 μg/disk, duplicate b)) was less than 1 mm; in test [2] (10 μg/disk, duplicate b)), less than 1 mm. Further, the “size of the inhibition zone, E. coli a)” value is given as less than 1 mm in test [3] (5 μg/disk, duplicate a)) and less than 1 mm in test [3] (10 μg/disk, duplicate a)). The “size of the inhibition zone, E. coli b)” value in test [3] (5 μg/disk, duplicate b)) is listed as less than 1 mm; in test [3] (10 μg/disk, duplicate b)), less than 1 mm. For the same compound, the “size of the inhibition zone, S. aureus a)” value is less than 1 mm in test [4] (5 μg/disk, duplicate a)) and less than 1 mm in test [4] (10 μg/disk, duplicate a)). In addition, the “size of the inhibition zone, S. aureus b)” value in test [4] (5 μg/disk, duplicate b)) is recorded as less than 1 mm; in test [4] (10 μg/disk, duplicate b)), less than 1 mm.
